{
  "source": "patent US20100240612A1",
  "about": "“Prenylated Bisphosphonates as Anti-tuberculosis Agents” (priority 2009, published 2010)",
  "key": {"[1]": {"target": "T1, mycobacterial polyprenyl synthase (RV2361c) (Mycobacterium tuberculosis, UniProt P9WFF7)", "T1 sequence (P9WFF7 1-296)": "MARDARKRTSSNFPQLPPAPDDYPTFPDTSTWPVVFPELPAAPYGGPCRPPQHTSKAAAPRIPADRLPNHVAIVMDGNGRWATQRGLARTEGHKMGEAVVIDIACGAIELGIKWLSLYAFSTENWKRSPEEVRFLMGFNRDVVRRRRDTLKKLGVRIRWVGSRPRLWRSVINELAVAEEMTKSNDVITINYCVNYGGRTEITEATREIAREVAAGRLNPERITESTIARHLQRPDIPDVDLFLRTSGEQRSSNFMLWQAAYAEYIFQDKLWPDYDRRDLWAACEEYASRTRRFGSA", "assay": "Test A: Inhibition of Mycobacterial Polyprenyl Synthase (RV2361c)", "type": "biochemical", "conditions": "result in words, data only in FIG. 1/FIG. 2"}, "[2]": {"test_system": "Mycobacterium Smegmatis (ATCC 607)", "assay": "Test B: Inhibition of Growth of the Bacterium M. Smegmatis", "type": "cell-based", "conditions": "grown in the presence of drug for 2 days, absorbance at 540 nm or CFU; result in words, data only in FIG. 3, versus Isoniazid", "protocol": "Mycobacterium Smegmatis (ATCC 607) was obtained from American Type Culture Collection and cultured in 7H9 broth (Sigma) containing ADC (Sigma), 0.5% glycerol, and 0.05% Tween-80. Bacteria were grown to log phase and then diluted, aliquoted, and grown in the presence of indicated drugs for 2 days. Growth was measured as a function of optical absorbance at 540 nm using a spectrophotometer. Alternatively, aliquots of liquid cultures were spread onto agar containing plates, which were then grown for 2 days, after which the number of colony forming units (CFU) were counted and normalized per mL."}},
  "data": [
    {"compound": "CC(C)=CCc1ccc(CC(P(=O)([O-])[O-])P(=O)([O-])[O-])cc1.[Na+].[Na+].[Na+].[Na+]", "note": "[compound 13, p-Prenyl-phenethylidene bisphosphonic acid tetra sodium salt]", "values": [
      {"measurement": "inhibition of purified mycobacterial polyprenyl synthase (RV2361c)", "setting": "[1]", "value": "inhibition"}
    ]},
    {"compound": "COC(=O)c1ccccc1NC/C(C)=C/CC/C(C)=C/CC(P(=O)(OCOC(=O)C(C)(C)C)OCOC(=O)C(C)(C)C)P(=O)(OCOC(=O)C(C)(C)C)OCOC(=O)C(C)(C)C", "note": "[compound 24]", "values": [
      {"measurement": "inhibition of growth of the bacterium M. Smegmatis", "setting": "[2]", "value": "inhibition of growth"}
    ]}
  ]
}
